According to ChEMBL document CHEMBL5046282, “Discovery of Brain-Penetrant Glucosylceramide Synthase Inhibitors with a Novel Pharmacophore” (J Med Chem, 2022):
Substitutions are numbered along the chain they refer to. Calls of active or inactive are those of the source. The rule behind the calls is not given here.

Assays:
[1] = Fraction unbound in plasma of non-fasted ICR mouse at 30 mg/kg, po measured after 1 hr by LC-MS/MS analysis; type: ADME, organism-based
CYP1A2 = molecular target: T1, CYP1A2 (Homo sapiens, UniProt P05177); assay: Inhibition of CYP1A2 in human liver microsomes using tacrine as substrate at 10 uM in presence of NADPH generating system incubated for 10 mins; type: ADME; settings: probe tacrine
T1 sequence (P05177 whole entry): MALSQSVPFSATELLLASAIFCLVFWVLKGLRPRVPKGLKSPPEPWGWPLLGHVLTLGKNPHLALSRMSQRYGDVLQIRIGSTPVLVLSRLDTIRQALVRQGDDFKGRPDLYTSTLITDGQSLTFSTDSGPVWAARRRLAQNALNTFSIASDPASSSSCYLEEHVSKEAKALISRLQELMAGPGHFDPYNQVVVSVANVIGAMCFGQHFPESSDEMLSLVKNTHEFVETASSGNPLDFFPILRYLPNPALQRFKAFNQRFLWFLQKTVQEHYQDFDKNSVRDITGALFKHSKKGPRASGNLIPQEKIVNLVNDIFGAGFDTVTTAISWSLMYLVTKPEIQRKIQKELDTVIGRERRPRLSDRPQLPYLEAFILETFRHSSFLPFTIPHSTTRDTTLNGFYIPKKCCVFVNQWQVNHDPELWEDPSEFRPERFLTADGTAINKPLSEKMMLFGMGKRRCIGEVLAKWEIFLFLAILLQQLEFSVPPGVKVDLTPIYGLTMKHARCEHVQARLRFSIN

Mus musculus [2] = assay: In vivo inhibition of GCS activity in po dosed C57BL/6J mouse assessed as reduction in GlcCer level in cerebral cortex measured after 6 hrs; type: functional, organism-based; settings: dose 30-300 mg/kg
[3] = MRT in non-fasted ICR mouse at 5 mg/kg, po by LC-MS/MS analysis; type: ADME, organism-based; settings: in vivo
[4] = molecular target: Sodium-dependent serotonin transporter (Homo sapiens, UniProt P31645); assay: Inhibition of human SERT; type: toxicity
Sodium-dependent serotonin transporter, sequence (P31645 whole entry): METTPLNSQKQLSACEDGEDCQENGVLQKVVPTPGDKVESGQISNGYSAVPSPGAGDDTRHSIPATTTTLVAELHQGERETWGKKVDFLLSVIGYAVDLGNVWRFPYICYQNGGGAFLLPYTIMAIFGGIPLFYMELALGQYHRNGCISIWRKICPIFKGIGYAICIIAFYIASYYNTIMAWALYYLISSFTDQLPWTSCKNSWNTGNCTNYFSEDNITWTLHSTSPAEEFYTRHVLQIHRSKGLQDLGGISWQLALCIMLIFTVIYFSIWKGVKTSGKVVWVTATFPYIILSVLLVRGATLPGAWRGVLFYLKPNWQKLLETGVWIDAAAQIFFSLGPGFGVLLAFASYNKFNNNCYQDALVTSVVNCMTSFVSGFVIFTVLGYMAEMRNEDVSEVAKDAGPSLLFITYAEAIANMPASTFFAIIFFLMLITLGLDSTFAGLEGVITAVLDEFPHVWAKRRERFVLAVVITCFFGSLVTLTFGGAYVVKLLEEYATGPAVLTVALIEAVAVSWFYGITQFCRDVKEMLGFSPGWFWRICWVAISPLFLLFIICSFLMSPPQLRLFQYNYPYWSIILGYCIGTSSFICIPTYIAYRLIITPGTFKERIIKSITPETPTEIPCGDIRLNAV

[5] = Fraction unbound in brain of non-fasted ICR mouse at 30 mg/kg, po measured after 1 hr by LC-MS/MS analysis; type: ADME, organism-based
[6] = AUC in non-fasted ICR mouse at 5 mg/kg, po by LC-MS/MS analysis; type: ADME, organism-based; design: dose 5 mg/kg; settings: in vivo
[7] = Cardiotoxicity in human iPSC-derived cardiomyocytes assessed as minimum effective concentration required for intracellular calcium transients-mediated proarrhythmic activity by Fluo-4 dye based fluorescence analysis; type: toxicity; settings: cardiac muscle cell
[8] = Unbound drug concentration in brain of non-fasted ICR mouse at 30 mg/kg, po measured after 1 hr by LC-MS/MS analysis; type: ADME, organism-based; settings: in vivo
Nav1.5 = Nav1.5 (Homo sapiens, UniProt Q14524); assay: Inhibition of human Nav1.5 at 30 uM by automated whole cell patch clamp assay; type: toxicity
Nav1.5, sequence (Q14524 whole entry): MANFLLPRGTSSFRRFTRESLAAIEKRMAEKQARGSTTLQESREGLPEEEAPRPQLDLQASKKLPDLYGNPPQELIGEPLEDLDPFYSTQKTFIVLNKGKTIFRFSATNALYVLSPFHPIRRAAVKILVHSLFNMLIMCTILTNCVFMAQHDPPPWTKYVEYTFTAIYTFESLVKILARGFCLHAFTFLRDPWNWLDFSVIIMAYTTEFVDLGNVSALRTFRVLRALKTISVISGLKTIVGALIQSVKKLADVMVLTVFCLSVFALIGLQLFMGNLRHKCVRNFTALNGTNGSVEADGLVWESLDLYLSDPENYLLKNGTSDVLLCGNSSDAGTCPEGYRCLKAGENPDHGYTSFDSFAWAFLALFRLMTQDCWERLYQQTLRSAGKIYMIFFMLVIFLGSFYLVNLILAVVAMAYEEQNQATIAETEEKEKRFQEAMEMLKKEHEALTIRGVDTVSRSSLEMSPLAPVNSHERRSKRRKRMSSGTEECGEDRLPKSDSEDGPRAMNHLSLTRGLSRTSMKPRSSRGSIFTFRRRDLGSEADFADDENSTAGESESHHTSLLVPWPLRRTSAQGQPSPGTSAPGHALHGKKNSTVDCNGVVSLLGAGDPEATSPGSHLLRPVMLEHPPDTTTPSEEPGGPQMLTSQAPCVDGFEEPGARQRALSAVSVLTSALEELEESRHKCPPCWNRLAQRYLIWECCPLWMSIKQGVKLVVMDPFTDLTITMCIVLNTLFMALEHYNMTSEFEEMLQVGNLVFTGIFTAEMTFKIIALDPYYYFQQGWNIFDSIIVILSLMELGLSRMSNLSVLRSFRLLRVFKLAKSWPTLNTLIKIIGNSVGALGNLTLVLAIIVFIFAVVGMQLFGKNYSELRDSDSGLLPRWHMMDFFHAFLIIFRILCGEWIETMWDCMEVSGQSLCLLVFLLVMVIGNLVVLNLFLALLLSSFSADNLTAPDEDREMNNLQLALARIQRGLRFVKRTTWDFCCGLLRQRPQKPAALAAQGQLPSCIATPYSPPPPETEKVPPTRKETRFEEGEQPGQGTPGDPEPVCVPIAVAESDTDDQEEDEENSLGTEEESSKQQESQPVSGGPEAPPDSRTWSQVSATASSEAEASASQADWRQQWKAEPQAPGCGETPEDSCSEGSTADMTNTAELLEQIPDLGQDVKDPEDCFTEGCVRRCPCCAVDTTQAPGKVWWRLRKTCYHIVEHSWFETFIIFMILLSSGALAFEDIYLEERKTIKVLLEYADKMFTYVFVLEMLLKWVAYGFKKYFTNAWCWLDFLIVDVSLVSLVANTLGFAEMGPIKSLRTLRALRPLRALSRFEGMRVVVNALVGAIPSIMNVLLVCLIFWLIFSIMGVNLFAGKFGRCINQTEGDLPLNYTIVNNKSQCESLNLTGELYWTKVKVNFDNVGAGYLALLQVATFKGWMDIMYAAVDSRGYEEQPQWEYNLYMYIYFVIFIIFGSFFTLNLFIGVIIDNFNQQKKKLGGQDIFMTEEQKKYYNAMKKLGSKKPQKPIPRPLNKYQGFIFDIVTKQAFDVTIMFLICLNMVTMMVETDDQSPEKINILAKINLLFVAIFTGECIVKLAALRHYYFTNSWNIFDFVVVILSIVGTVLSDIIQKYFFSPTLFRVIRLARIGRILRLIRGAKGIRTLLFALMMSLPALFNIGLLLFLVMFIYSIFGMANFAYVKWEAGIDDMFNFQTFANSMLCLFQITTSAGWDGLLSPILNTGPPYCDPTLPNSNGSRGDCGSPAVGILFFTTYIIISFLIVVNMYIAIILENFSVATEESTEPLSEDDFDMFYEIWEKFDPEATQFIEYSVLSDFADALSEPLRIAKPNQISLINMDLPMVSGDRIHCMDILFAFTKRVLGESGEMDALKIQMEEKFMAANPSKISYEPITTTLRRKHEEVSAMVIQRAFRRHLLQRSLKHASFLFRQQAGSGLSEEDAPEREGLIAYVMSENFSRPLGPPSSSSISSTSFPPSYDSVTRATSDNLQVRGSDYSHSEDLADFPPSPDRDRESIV

[9] = Selectivity index, ratio of IC50 for mouse GCS to IC50 for human GCS
[10] = molecular target: T2, Ceramide glucosyltransferase (Homo sapiens) (UniProt Q16739); assay: Non-competitive inhibition of GCS (unknown origin) using 1 to 70 uM C8-ceramide and 0.1 to 200 uM UDP-glucose as substrate incubated for 1 hr by RapidFire mass spectrometry
T2 sequence (whole entry): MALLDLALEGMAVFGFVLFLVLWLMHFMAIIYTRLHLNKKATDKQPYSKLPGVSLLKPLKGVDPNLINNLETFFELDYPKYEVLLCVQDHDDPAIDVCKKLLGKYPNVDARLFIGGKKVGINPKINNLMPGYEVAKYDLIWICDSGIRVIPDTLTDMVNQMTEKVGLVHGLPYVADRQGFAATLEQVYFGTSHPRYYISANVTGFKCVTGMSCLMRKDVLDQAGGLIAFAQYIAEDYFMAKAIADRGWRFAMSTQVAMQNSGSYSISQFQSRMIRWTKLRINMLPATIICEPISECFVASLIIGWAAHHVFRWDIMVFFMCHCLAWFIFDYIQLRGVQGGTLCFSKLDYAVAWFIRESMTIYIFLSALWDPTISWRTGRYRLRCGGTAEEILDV

[11] = molecular target: T3, Ceramide glucosyltransferase (Mus musculus, UniProt O88693); assay: Inhibition of mouse GCS using C8-ceramide and UDP-glucose as substrate incubated for 1 hr by RapidFire mass spectrometry
T3 sequence (O88693 whole entry): T2 sequence (whole entry) with L8Q, V13L, L20V, A29S, G131A, Y196S, A251S

[12] = molecular target: T4, Ceramide glucosyltransferase (Homo sapiens, UniProt Q16739); assay: Inhibition of human GCS using C8-ceramide and UDP-glucose as substrate incubated for 1 hr by RapidFire mass spectrometry
T4 sequence (Q16739 whole entry): T2 sequence (whole entry)

Mus musculus [13] = assay: In vivo inhibition of GCS activity in po dosed C57BL/6J mouse assessed as reduction in GlcCer level in plasma measured after 6 hrs; type: functional, organism-based; settings: dose 30-300 mg/kg
CYP2C8 = molecular target: T5, CYP2C8 (Homo sapiens, UniProt P10632); assay: Inhibition of CYP2C8 in human liver microsomes using paclitaxel as substrate at 10 uM in presence of NADPH generating system incubated for 10 mins; type: ADME; settings: probe paclitaxel
T5 sequence (P10632 whole entry): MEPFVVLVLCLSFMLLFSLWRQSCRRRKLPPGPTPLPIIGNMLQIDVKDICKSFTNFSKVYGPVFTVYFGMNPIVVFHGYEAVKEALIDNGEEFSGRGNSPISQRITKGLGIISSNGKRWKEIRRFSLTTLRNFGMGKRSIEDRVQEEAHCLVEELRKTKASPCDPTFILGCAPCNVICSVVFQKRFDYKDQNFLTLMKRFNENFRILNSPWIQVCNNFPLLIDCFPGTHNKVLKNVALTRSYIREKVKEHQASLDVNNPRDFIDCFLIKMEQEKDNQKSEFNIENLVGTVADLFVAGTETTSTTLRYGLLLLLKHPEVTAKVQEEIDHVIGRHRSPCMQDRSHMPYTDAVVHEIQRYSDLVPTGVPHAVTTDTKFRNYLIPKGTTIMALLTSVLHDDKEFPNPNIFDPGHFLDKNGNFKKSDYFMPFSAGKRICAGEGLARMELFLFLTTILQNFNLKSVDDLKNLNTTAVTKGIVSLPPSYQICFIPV

[14] = Cmax in non-fasted ICR mouse at 5 mg/kg, po by LC-MS/MS analysis; type: ADME, organism-based; design: route oral, dose 5 mg/kg; settings: in vivo
[15] = Toxicity in Sprague-Dawley rat assessed as change in body weight at 30 to 300 mg/kg, po administered once daily for 3 days; type: organism-based; settings: in vivo, 72 h, dose 30-300 mg/kg, time 3 day

For CC(C)(O)c1ccc(NC(=O)c2ccnn(-c3ccccc3OCC(F)(F)F)c2=O)cc1, the fraction unbound at 1 h [1] was 0.23, the inhibition at 10 min, 10 µM (CYP1A2) was 9.3% and the inhibition (Mus musculus [2]) was “Dose-Dependent Effect”. The MRT [3] was 1.91 h, the IC50 [4] was > 10000 nM and the fraction unbound at 1 h [5] was 0.039. The AUC [6] was 829 ng·h/mL, the MEC [7] was > 10 µM and the “Drug uptake(free)” value [8] was 0.21 µM. The inhibition at 30 µM (Nav1.5) was 20%, the Ratio IC50 [9] was 12.7 and the inhibition [10] was “Active”. The IC50 [11] was 190 nM, the IC50 [12] was 15 nM and the inhibition (Mus musculus [13]) was “Dose-Dependent Effect”. The inhibition at 10 min, 10 µM (CYP2C8) was 34.2%, the Cmax [14] was 416 ng/mL and the Activity [15] was “Non-Toxic”.
